Results: ChEMBL document CHEMBL5390219, “Benzyl stapled modification and anticancer activity of antimicrobial peptide A4K14-Citropin 1.1” (Bioorg Med Chem Lett, 2023)
pIC50: −log10 of the molar value. Active and inactive are the calls of the source. The rule behind the calls is not given here. *1 amine or outer side, *2 acyl side, *3 side chain or, on linkers, in order; H or OH if unused. Where a SMILES comes first, the peptide text is derived from it. Bridges are numbered along the chain shown (N, C = ends). Biphenyl(4,4'-CH2)2 = c1cc(-c2ccc(C[*:2])cc2)ccc1C[*:1]; mXylylene = c1cc(C[*:1])cc(C[*:2])c1; oXylylene = c1ccc(C[*:2])c(C[*:1])c1; pXylylene = c1cc(C[*:2])ccc1C[*:1]

What was measured:
MCF7 [1] = assay: Anti-cancer activity against human MCF7 assessed as cell viability incubated for 48 hrs by CCK-8 assay; format: functional, cell-based; details: MCF7, 48 h
HCT-116 = assay: Anti-cancer activity against human HCT-116 assessed as cell viability incubated for 48 hrs by CCK-8 assay; format: functional, cell-based; details: HCT-116, 48 h
U-87 MG = assay: Anti-cancer activity against human U-87 MG assessed as cell viability incubated for 48 hrs by CCK-8 assay; format: functional, cell-based, U-87MG ATCC
MCF7 [2] = assay: Inhibition of cell migration in human MCF7 cells at 5 uM incubated for 24 hrs by scratch wound healing assay; format: functional, cell-based
MCF7 [3] = assay: Induction of apoptosis in human MCF7 cells assessed as early apoptotic cells at 5 uM incubated for 24 hrs by Annexin V-FITC/PI staining based flow cytometry analysis (reference value: 1.01%); format: functional
MCF7 [4] = assay: Induction of apoptosis in human MCF7 cells assessed as necrotic cells at 5 uM incubated for 24 hrs by Annexin V-FITC/PI staining based flow cytometry analysis (reference value: 1.94%); format: functional
MCF7 [5] = assay: Induction of apoptosis in human MCF7 cells assessed as viable cells at 5 uM incubated for 24 hrs by Annexin V-FITC/PI staining based flow cytometry analysis (reference value: 93.51%); format: functional; details: read-out: Activity
[6] = Stability of a compound in human serum assessed as half life at 91 mg/mL incubated for 0 to 144 hrs by HPLC-UV analysis; format: ADME, cell-free; details: time 0-144 hrs
MCF7 [7] = assay: Induction of cell death in human MCF7 cells assessed as reduction in number of viable cells at 10 uM incubated for 24 hrs by calcein-AM/PI staining based analysis; format: functional
MCF7 [8] = assay: Induction of apoptosis in human MCF7 cells assessed as late apoptotic cells at 5 uM incubated for 24 hrs by Annexin V-FITC/PI staining based flow cytometry analysis (reference value: 3.54%); format: functional
MCF7 [9] = assay: Inhibition of cell migration in human MCF7 cells at 5 uM incubated for 36 hrs by crystal violet staining based microscopy analysis; format: functional
MCF7 [10] = assay: Induction of cell death in human MCF7 cells at 10 uM incubated for 24 hrs by calcein-AM/PI staining based analysis; format: functional

Compound | pIC50 (MCF7 [1]) | pIC50 (HCT-116) | pIC50 (U-87 MG) | half-life at 91 mg/mL [6] [h] | Activity (MCF7 [2]) | Activity (MCF7 [3]) [%] | Activity (MCF7 [4]) [%] | viability at 5 µM (MCF7 [5]) [%] | Activity (MCF7 [7]) | Activity (MCF7 [8]) [%] | Activity (MCF7 [9]) | Activity (MCF7 [10])
CC[C@H](C)[C@H](NC(=O)[C@@H](NC(=O)[C@H](CO)NC(=O)[C@H](C)NC(=O)[C@@H](NC(=O)[C@H](CCCCN)NC(=O)[C@H](CCCCN)NC(=O)[C@@H]1CSCc2cccc(c2)CSC[C@H](NC(=O)CNC(C)=O)C(=O)N[C@@H](Cc2ccccc2)C(=O)N[C@@H](C)C(=O)N[C@@H](C(C)C)C(=O)N1)C(C)C)C(C)C)C(=O)N[C@@H](CCCCN)C(=O)NCC(=O)N[C@@H](CC(C)C)C(N)=O (Ac-GCFAVCKKVASVIKGL-NH2; linker 2-6 via mXylylene) | 4.26 | 3.98 | 4.24 |  |  |  |  |  |  |  |  | 
CC[C@H](C)[C@H](NC(=O)[C@@H](NC(=O)[C@H](CO)NC(=O)[C@H](C)NC(=O)[C@@H](NC(=O)[C@H](CCCCN)NC(=O)[C@H](CCCCN)NC(=O)[C@@H]1CSCc2ccc(cc2)CSC[C@H](NC(=O)CNC(C)=O)C(=O)N[C@@H](Cc2ccccc2)C(=O)N[C@@H](C)C(=O)N[C@@H](C(C)C)C(=O)N1)C(C)C)C(C)C)C(=O)N[C@@H](CCCCN)C(=O)NCC(=O)N[C@@H](CC(C)C)C(N)=O (Ac-GCFAVCKKVASVIKGL-NH2; linker 2-6 via pXylylene) | 4.27 | 3.64 | 4.28 |  |  |  |  |  |  |  |  | 
CC[C@H](C)[C@@H]1NC(=O)[C@@H](NC(=O)[C@H](C)NC(=O)[C@H](Cc2ccccc2)NC(=O)[C@H](CC(C)C)NC(=O)CNC(C)=O)CSCc2ccccc2CSC[C@@H](C(=O)N[C@@H](C)C(=O)N[C@@H](CO)C(=O)N[C@H](C(=O)N[C@H](C(=O)N[C@@H](CCCCN)C(=O)NCC(=O)N[C@@H](CC(C)C)C(N)=O)[C@@H](C)CC)C(C)C)NC(=O)[C@H](CCCCN)NC(=O)[C@H](CCCCN)NC1=O (Ac-GLFACIKKCASVIKGL-NH2; linker 5-9 via oXylylene) | 5.56 | 5.30 | 5.55 | 143 | Active | 22.39 | 1.35 | 1.1 | Active | 75.52 | Active | 
CC[C@H](C)[C@H](NC(=O)[C@@H](NC(=O)[C@H](CO)NC(=O)[C@@H]1CSCc2cccc(c2)CSC[C@H](NC(=O)[C@@H](NC(=O)[C@H](C)NC(=O)[C@H](Cc2ccccc2)NC(=O)[C@H](CC(C)C)NC(=O)CNC(C)=O)C(C)C)C(=O)N[C@@H](CCCCN)C(=O)N[C@@H](CCCCN)C(=O)N[C@@H](C(C)C)C(=O)N1)C(C)C)C(=O)N[C@@H](CCCCN)C(=O)NCC(=O)N[C@@H](CC(C)C)C(N)=O (Ac-GLFAVCKKVCSVIKGL-NH2; linker 6-10 via mXylylene) | 4.87 | 4.98 | 4.84 |  |  |  |  |  |  |  |  | 
CC[C@H](C)[C@H](NC(=O)[C@@H](NC(=O)[C@H](CO)NC(=O)[C@@H]1CSCc2ccccc2CSC[C@H](NC(=O)[C@@H](NC(=O)[C@H](C)NC(=O)[C@H](Cc2ccccc2)NC(=O)[C@H](CC(C)C)NC(=O)CNC(C)=O)C(C)C)C(=O)N[C@@H](CCCCN)C(=O)N[C@@H](CCCCN)C(=O)N[C@@H](C(C)C)C(=O)N1)C(C)C)C(=O)N[C@@H](CCCCN)C(=O)NCC(=O)N[C@@H](CC(C)C)C(N)=O (Ac-GLFAVCKKVCSVIKGL-NH2; linker 6-10 via oXylylene) | 5.18 | 5.23 | 5.20 | 143 | Active | 15.92 | 3.9 | 43.2 | Active | 37.02 | Active | 
CC[C@H](C)[C@H](NC(=O)[C@@H](NC(=O)[C@H](CO)NC(=O)[C@@H]1CSCc2ccc(cc2)CSC[C@H](NC(=O)[C@@H](NC(=O)[C@H](C)NC(=O)[C@H](Cc2ccccc2)NC(=O)[C@H](CC(C)C)NC(=O)CNC(C)=O)C(C)C)C(=O)N[C@@H](CCCCN)C(=O)N[C@@H](CCCCN)C(=O)N[C@@H](C(C)C)C(=O)N1)C(C)C)C(=O)N[C@@H](CCCCN)C(=O)NCC(=O)N[C@@H](CC(C)C)C(N)=O (Ac-GLFAVCKKVCSVIKGL-NH2; linker 6-10 via pXylylene) | 4.80 | 4.87 | 4.81 |  |  |  |  |  |  |  |  | 
CC[C@H](C)[C@H](NC(=O)[C@@H](NC(=O)[C@H](C)NC(=O)[C@H](Cc1ccccc1)NC(=O)[C@H](CC(C)C)NC(=O)CNC(C)=O)C(C)C)C(=O)N[C@@H](CCCCN)C(=O)N[C@@H](CCCCN)C(=O)N[C@H]1CSCc2ccccc2CSC[C@@H](C(=O)N[C@@H](CCCCN)C(=O)NCC(=O)N[C@@H](CC(C)C)C(N)=O)NC(=O)[C@H](C(C)C)NC(=O)[C@H](CO)NC(=O)[C@H](C)NC1=O (Ac-GLFAVIKKCASVCKGL-NH2; linker 9-13 via oXylylene) | 5.06 | 5.10 | 5.07 |  |  |  |  |  |  |  |  | 
Ac-GLFAVIKKVASVIKGL-NH2 | 4.85 | 4.79 | 4.84 | 6.81 |  | 2.44 | 8.31 | 77.5 |  | 11.45 | inactive | Active

Further lines, with some results ahead:

pIC50 (MCF7 [1]) | pIC50 (HCT-116) | pIC50 (U-87 MG) | half-life at 91 mg/mL [6] [h] | Compound | Activity (MCF7 [2]) | Activity (MCF7 [3]) [%] | Activity (MCF7 [4]) [%] | viability at 5 µM (MCF7 [5]) [%] | Activity (MCF7 [7]) | Activity (MCF7 [8]) [%] | Activity (MCF7 [9]) | Activity (MCF7 [10])
4.90 | 4.86 | 4.94 |  | CC[C@H](C)[C@H](NC(=O)[C@@H](NC(=O)[C@H](CO)NC(=O)[C@H](C)NC(=O)[C@@H](NC(=O)[C@H](CCCCN)NC(=O)[C@H](CCCCN)NC(=O)[C@@H]1CSCc2ccccc2CSC[C@H](NC(=O)CNC(C)=O)C(=O)N[C@@H](Cc2ccccc2)C(=O)N[C@@H](C)C(=O)N[C@@H](C(C)C)C(=O)N1)C(C)C)C(C)C)C(=O)N[C@@H](CCCCN)C(=O)NCC(=O)N[C@@H](CC(C)C)C(N)=O (Ac-GCFAVCKKVASVIKGL-NH2; linker 2-6 via oXylylene) |  |  |  |  |  |  |  | 
5.03 | 5.08 | 4.93 |  | CC[C@H](C)[C@@H]1NC(=O)[C@@H](NC(=O)[C@H](C)NC(=O)[C@H](Cc2ccccc2)NC(=O)[C@H](CC(C)C)NC(=O)CNC(C)=O)CSCc2cccc(c2)CSC[C@@H](C(=O)N[C@@H](C)C(=O)N[C@@H](CO)C(=O)N[C@H](C(=O)N[C@H](C(=O)N[C@@H](CCCCN)C(=O)NCC(=O)N[C@@H](CC(C)C)C(N)=O)[C@@H](C)CC)C(C)C)NC(=O)[C@H](CCCCN)NC(=O)[C@H](CCCCN)NC1=O (Ac-GLFACIKKCASVIKGL-NH2; linker 5-9 via mXylylene) |  |  |  |  |  |  |  | 
4.93 | 4.89 | 4.89 |  | CC[C@H](C)[C@@H]1NC(=O)[C@@H](NC(=O)[C@H](C)NC(=O)[C@H](Cc2ccccc2)NC(=O)[C@H](CC(C)C)NC(=O)CNC(C)=O)CSCc2ccc(cc2)CSC[C@@H](C(=O)N[C@@H](C)C(=O)N[C@@H](CO)C(=O)N[C@H](C(=O)N[C@H](C(=O)N[C@@H](CCCCN)C(=O)NCC(=O)N[C@@H](CC(C)C)C(N)=O)[C@@H](C)CC)C(C)C)NC(=O)[C@H](CCCCN)NC(=O)[C@H](CCCCN)NC1=O (Ac-GLFACIKKCASVIKGL-NH2; linker 5-9 via pXylylene) |  |  |  |  |  |  |  | 
5.13 | 5.13 | 5.04 |  | CC(=O)NCC(=O)N[C@@H](CC(C)C)C(=O)N[C@@H](Cc1ccccc1)C(=O)N[C@@H](C)C(=O)N[C@H](C(=O)N[C@H]1CSCc2ccc(cc2)-c2ccc(cc2)CSC[C@@H](C(=O)N[C@@H](CCCCN)C(=O)NCC(=O)N[C@@H](CC(C)C)C(N)=O)NC(=O)[C@H](C(C)C)NC(=O)[C@H](CO)NC(=O)[C@H](C)NC(=O)[C@H](C(C)C)NC(=O)[C@H](CCCCN)NC(=O)[C@H](CCCCN)NC1=O)C(C)C (Ac-GLFAVCKKVASVCKGL-NH2; linker 6-13 via Biphenyl(4,4'-CH2)2) |  |  |  |  |  |  |  | 
5.08 | 4.96 | 4.97 |  | CC[C@H](C)[C@H](NC(=O)[C@@H](NC(=O)[C@H](C)NC(=O)[C@H](Cc1ccccc1)NC(=O)[C@H](CC(C)C)NC(=O)CNC(C)=O)C(C)C)C(=O)N[C@@H](CCCCN)C(=O)N[C@@H](CCCCN)C(=O)N[C@H]1CSCc2cccc(c2)CSC[C@@H](C(=O)N[C@@H](CCCCN)C(=O)NCC(=O)N[C@@H](CC(C)C)C(N)=O)NC(=O)[C@H](C(C)C)NC(=O)[C@H](CO)NC(=O)[C@H](C)NC1=O (Ac-GLFAVIKKCASVCKGL-NH2; linker 9-13 via mXylylene) |  |  |  |  |  |  |  | 
4.49 | 3.94 | 4.59 |  | CC[C@H](C)[C@H](NC(=O)[C@@H](NC(=O)[C@H](C)NC(=O)[C@H](Cc1ccccc1)NC(=O)[C@H](CC(C)C)NC(=O)CNC(C)=O)C(C)C)C(=O)N[C@@H](CCCCN)C(=O)N[C@@H](CCCCN)C(=O)N[C@H]1CSCc2ccc(cc2)CSC[C@@H](C(=O)N[C@@H](CCCCN)C(=O)NCC(=O)N[C@@H](CC(C)C)C(N)=O)NC(=O)[C@H](C(C)C)NC(=O)[C@H](CO)NC(=O)[C@H](C)NC1=O (Ac-GLFAVIKKCASVCKGL-NH2; linker 9-13 via pXylylene) |  |  |  |  |  |  |  | 
